In patent US8143243B2, “Compounds for the treatment of hepatitis C” (Bristol-Myers Squibb Company, priority 2007, dated 2012):
pEC50, pIC50: −log10 of the molar value. Where two headings read alike, the source gives them in different places.

Key:
HCV NS5B = biological target: T1, HCV NS5B (Hepatitis C virus genotype 1b, UniProt Q9WMX2); assay: HCV NS5B RdRp enzyme assay (standard / modified); assay type: biochemical
T1 construct: The protein was expressed with an 18 amino acid C-terminal truncation to enhance the solubility; made in house; host or cells: E. coli BL21 (DE3)
Description: HCV NS5B RdRp cloning, expression, and purification. The cDNA encoding the NS5B protein of HCV, genotype 1b, was cloned into the pET21a expression vector. The protein was expressed with an 18 amino acid C-terminal truncation to enhance the solubility. The E. coli competent cell line BL21 (DE3) was used for expression of the protein. Cultures were grown at 37° C. for ˜4 hours until the cultures reached an optical density of 2.0 at 600 nm. The cultures were cooled to 20° C. and induced with 1 mM IPTG. Fresh ampicillin was added to a final concentration of 50 μg/ml and the cells were grown overnight at 20° C.
Cell pellets (3 L) were lysed for purification to yield 15-24 mgs of purified NS5B. The lysis buffer consisted of 20 mM Tris-HCl, pH 7.4, 500 mM NaCl, 0.5% triton X-100, 1 mM DTT, 1 mM EDTA, 20% glycerol, 0.5 mg/ml lysozyme, 10 mM MgCl2, 15 ug/ml deoxyribonuclease I, and Complete TM protease inhibitor tablets (Roche). After addition of the lysis buffer, frozen cell pellets were resuspended using a tissue homogenizer. To reduce the viscosity of the sample, aliquots of the lysate were sonicated on ice using a microtip attached to a Branson sonicator. The sonicated lysate was centrifuged at 100,000×g for 1 hr at 4° C. and filtered through a 0.2 μm filter unit (Corning).
The protein was purified using three sequential chromatography steps: Heparin sepharose CL-6B, polyU sepharose 4B, and Hitrap SP sepharose (Pharmacia). The chromatography buffers were identical to the lysis buffer but contained no lysozyme, deoxyribonuclease I, MgCl2 or protease inhibitor and the NaCl concentration of the buffer was adjusted according to the requirements for charging the protein onto the column. Each column was eluted with a NaCl gradient which varied in length from 5-50 column volumes depending on the column type. After the final chromatography step, the resulting purity of the enzyme is >90% based on SDS-PAGE analysis. The enzyme was aliquoted and stored at −80° C.
Standard HCV NS5B RdRp enzyme assay. HCV RdRp genotype 1b assays were run in a final volume of 60 μl in 96 well plates (Costar 3912). The assay buffer is composed of 20 mM Hepes, pH 7.5, 2.5 mM KCl, 2.5 mM MgCl2, 1 mM DTT, 1.6 U RNAse inhibitor (Promega N2515), 0.1 mg/ml BSA (Promega R3961), and 2% glycerol. All compounds were serially diluted (3-fold) in DMSO and diluted further in water such that the final concentration of DMSO in the assay was 2%. HCV RdRp genotype 1b enzyme was used at a final concentration of 28 nM. A polyA template was used at 6 nM, and a biotinylated oligo-dT12 primer was used at 180 nM final concentration. Template was obtained commercially (Amersham 27-4110). Biotinylated primer was prepared by Sigma Genosys. 3H-UTP was used at 0.6 μCi (0.29 μM total UTP). Reactions were initiated by the addition of enzyme, incubated at 30° C. for 60 min, and stopped by adding 25 μl of 50 mM EDTA containing SPA beads (4 μg/μl, Amersham RPNQ 0007). Plates were read on a Packard Top Count NXT after >1 hr incubation at room temperature.
Modified HCV NS5B RdRp enzyme assay. A modified enzyme assay was performed essentially as described for the standard enzyme assay except for the following: The biotinylated oligo dT12 primer was precaptured on streptavidin-coated SPA beads by mixing primer and beads in assay buffer and incubating at room temperature for one hour. Unbound primer was removed after centrifugation. The primer-bound beads were resuspended in 20 mM Hepes buffer, pH 7.5 and used in the assay at final concentrations of 20 nM primer and 0.67 μg/μl beads. Order of addition in the assay: enzyme (14 nM) was added to diluted compound followed by the addition of a mixture of template (0.2 nM), 3H-UTP (0.6 μCi, 0.29 μM), and primer-bound beads, to initiate the reaction; concentrations given are final. Reactions were allowed to proceed for 4 hours at 30° C.
IC50 values for compounds were determined using seven different [I]. […]

HCV replicon cells = assay: HCV replicon FRET / luciferase assay; assay type: cell-based; details: Hepatitis C virus
Text: FRET Assay Preparation. To perform the HCV FRET screening assay, 96-well cell culture plates were used. The FRET peptide (Anaspec, Inc.) (Taliani et al., Anal. Biochem. 1996, 240, 60-67) contains a fluorescence donor, EDANS, near one end of the peptide and an acceptor, DABCYL, near the other end. The fluorescence of the peptide is quenched by […] resonance energy transfer (RET) between the donor and the acceptor, but as the NS3 protease cleaves the peptide the products are released from RET quenching and the fluorescence of the donor becomes apparent. The assay reagent was made as follows: 5× cell Luciferase cell culture lysis reagent from Promega (#E153A) diluted to 1× with dH2O, NaCl added to 150 mM final, the FRET peptide diluted to 20 μM final from a 2 mM stock.
To prepare plates, HCV replicon cells, with or without a Renilla luciferase reporter gene, were trypsinized and placed into each well of a 96-well plate with titrated test compounds added in columns 3 through 12; columns 1 and 2 contained a control compound (HCV protease inhibitor), and the bottom row contained cells without compound. The plates were then placed in a CO2 incubator at 37° C.
Assays. Subsequent to addition of the test compounds described above (FRET Assay Preparation), at various times the plate was removed and Alamar blue solution (Trek Diagnostics, #00-100) was added per well as a measure of cellular toxicity. After reading in a Cytoflour 4000 instrument (PE Biosystems), plates were rinsed with PBS and then used for FRET assay by the addition of 30 ul of the FRET peptide assay reagent described above (FRET Assay Preparation) per well. The plate was then placed into the Cytoflour 4000 instrument which had been set to 340 excite/490 emission, automatic mode for 20 cycles and the plate read in a kinetic mode. Typically, the signal to noise using an endpoint analysis after the reads was at least three-fold. Alternatively, after Alamar blue reading, plates were rinsed with PBS, 50 ul of DMEM (high glucose) without phenol red was added and plates were then used for luciferase assay using the Promega Dual-Glo Luciferase Assay System.
Compound analysis was determined by quantification of the relative HCV replicon inhibition and the relative cytotoxicity values. To calculate cytoxicity values, the average Alamar Blue fluorescence signals from the control wells were set as 100% non-toxic. The individual signals in each of the compound test wells were then divided by the average control signal and multiplied by 100% to determine […]. To calculate the HCV replicon inhibition values, an average background value was obtained from the two wells containing the highest amount of HCV protease inhibitor at the end of the assay period. These numbers were similar to those obtained from naïve Huh-7 cells.
The background numbers were then subtracted from the average signal obtained from the control wells and this number was used as 100% activity. The individual signals in each of the compound test wells were then divided by the averaged control values after background subtraction and multiplied by 100% to determine percent activity. EC50 values for a protease inhibitor titration were calculated as the concentration which caused a 50% reduction in FRET or luciferase activity. The two numbers generated for the compound plate, percent cytoxicity and percent activity were used to determine compounds of interest for further analysis.

[1] = HCV RdRp genotype 1b enzyme, read-out: IC50
[2] = HCV replicon cells, FRET or luciferase readout, read-out: EC50

T1 sequence (Q9WMX2 2420-2992): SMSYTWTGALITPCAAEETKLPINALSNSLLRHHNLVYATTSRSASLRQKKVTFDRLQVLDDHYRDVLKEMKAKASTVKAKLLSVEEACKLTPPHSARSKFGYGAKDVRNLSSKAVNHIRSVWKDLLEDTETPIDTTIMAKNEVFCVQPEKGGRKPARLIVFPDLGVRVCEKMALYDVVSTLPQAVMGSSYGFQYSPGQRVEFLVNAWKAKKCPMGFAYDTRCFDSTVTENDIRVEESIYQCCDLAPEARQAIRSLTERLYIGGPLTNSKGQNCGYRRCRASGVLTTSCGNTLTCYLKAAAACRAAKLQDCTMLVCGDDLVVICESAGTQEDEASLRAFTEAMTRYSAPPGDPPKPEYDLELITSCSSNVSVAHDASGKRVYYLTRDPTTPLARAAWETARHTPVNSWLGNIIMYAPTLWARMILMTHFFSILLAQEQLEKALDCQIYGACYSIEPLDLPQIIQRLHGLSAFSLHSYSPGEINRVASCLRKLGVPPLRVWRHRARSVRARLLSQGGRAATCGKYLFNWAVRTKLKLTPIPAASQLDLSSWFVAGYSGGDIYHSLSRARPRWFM

| SMILES | pIC50 (HCV NS5B) | pEC50 (HCV replicon cells) | pIC50 (HCV NS5B; [1]) | pEC50 (HCV replicon cells; [2]) |
| --- | --- | --- | --- | --- |
| COc1ccc2c(c1)C=C(c1c(C(=O)N3C4CCC3CN(C)C4)cnn1C)Cn1c-2c(C2CCCCC2)c2ccc(C(=O)NS(=O)(=O)C3CC3)cc21 | 6.30 to 9.00 | 6.30 to 9.00 |  |  |
| COc1ccc2c(c1)C=C(c1c(C(=O)N3C4CCC3CN(C)C4)cnn1C)Cn1c-2c(C2CCCCC2)c2ccc(C(=O)NS(=O)(=O)N3CCCC3)cc21 | 6.30 to 9.00 | 6.30 to 9.00 |  |  |
| COc1ccc2c(c1)C=C(c1c(C(=O)N3C4CCC3CC4)cnn1C)Cn1c-2c(C2CCCCC2)c2ccc(C(=O)NS(=O)(=O)N3CCOCC3)cc21 | 6.30 to 9.00 | 6.30 to 9.00 |  |  |
| COc1ccc2c(c1)C=C(c1c(C(=O)N3[C@@H]4CC[C@H]3CN(C)C4)cnn1C)Cn1c-2c(C2CCCCC2)c2ccc(C(=O)NS(=O)(=O)N3CCOCC3)cc21 | 6.30 to 9.00 | 6.30 to 9.00 |  |  |
| COc1ccc2c(c1)C=C(c1c(C(=O)N3C[C@H]4CC[C@@H](C3)N4C)cnn1C)Cn1c-2c(C2CCCCC2)c2ccc(C(=O)NS(=O)(=O)N3CCOCC3)cc21 | 6.30 to 9.00 | 6.30 to 9.00 |  |  |
| COCCN(C(=O)c1cnn(C)c1C1=Cc2cc(OC)ccc2-c2c(C3CCCCC3)c3ccc(C(=O)NS(=O)(=O)N4CCOCC4)cc3n2C1)C(C)C |  |  | 6.30 to 9.00 | 6.30 to 9.00 |
| COc1ccc2c(c1)C=C(c1c(C(=O)N(C)CCN(C)C)cnn1C)Cn1c-2c(C2CCCCC2)c2ccc(C(=O)NS(=O)(=O)N3CCOCC3)cc21 |  |  | 6.30 to 9.00 | 6.30 to 9.00 |
| COc1ccc2c(c1)C=C(c1c(C(=O)N3CCC(N4CCCC4)CC3)cnn1C)Cn1c-2c(C2CCCCC2)c2ccc(C(=O)NS(=O)(=O)N3CCOCC3)cc21 |  |  | 6.30 to 9.00 | < 6.30 |
| COC[C@@H]1CN(C(=O)c2cnn(C)c2C2=Cc3cc(OC)ccc3-c3c(C4CCCCC4)c4ccc(C(=O)NS(=O)(=O)N5CCOCC5)cc4n3C2)CCO1 |  |  | 6.30 to 9.00 | 6.30 to 9.00 |
| COc1ccc2c(c1)C=C(c1c(C(=O)N3[C@@H]4CC[C@H]3C[C@@](C)(O)C4)cnn1C(C)C)Cn1c-2c(C2CCCCC2)c2ccc(C(=O)NS(=O)(=O)C(C)C)cc21 | 6.30 to 9.00 | 6.30 to 9.00 |  |  |
| COc1ccc2c(c1)C=C(c1c(C(=O)N3C4C=C(C)CC3CC4)cnn1C(C)C)Cn1c-2c(C2CCCCC2)c2ccc(C(=O)NS(=O)(=O)C(C)C)cc21 (centres unmarked) | 6.30 to 9.00 | 6.30 to 9.00 |  |  |
| COc1ccc2c(c1)C=C(c1c(C(=O)N3[C@@H]4CC[C@H]3C[C@@](C)(O)C4)cnn1C(C)C)Cn1c-2c(C2CCCCC2)c2ccc(C(=O)NS(=O)(=O)CC(C)C)cc21 | 6.30 to 9.00 | 6.30 to 9.00 |  |  |
| COc1ccc2c(c1)C=C(c1c(C(=O)N3C4C=C(C)CC3CC4)cnn1C(C)C)Cn1c-2c(C2CCCCC2)c2ccc(C(=O)NS(=O)(=O)CC(C)C)cc21 (centres unmarked) | 6.30 to 9.00 | 6.30 to 9.00 |  |  |
| COc1ccc2c(c1)C=C(c1c(C(=O)N3C4CCC3CN(C)C4)c(C)nn1C)Cn1c-2c(C2CCCCC2)c2ccc(C(=O)NS(=O)(=O)C(C)C)cc21 | 6.30 to 9.00 | 6.30 to 9.00 |  |  |
| COc1ccc2c(c1)C=C(c1c(C(=O)N3C4CCC3CN(C)C4)ccn1C(C)C)Cn1c-2c(C2CCCCC2)c2ccc(C(=O)NS(=O)(=O)C(C)C)cc21 | 6.30 to 9.00 | 6.30 to 9.00 |  |  |
| COc1ccc2c(c1)C=C(c1c(C(=O)N3C4CCCC3COC4)cnn1CC(F)(F)F)Cn1c-2c(C2CCCCC2)c2ccc(C(=O)NS(=O)(=O)C(C)C)cc21 | 6.30 to 9.00 | 6.30 to 9.00 |  |  |
| COc1ccc2c(c1)C=C(c1c(C(=O)N3C4CCC3CN(C)C4)cnn1CC(F)(F)F)Cn1c-2c(C2CCCCC2)c2ccc(C(=O)NS(=O)(=O)C(C)C)cc21 | 6.30 to 9.00 | 6.30 to 9.00 |  |  |
| COc1ccc2c(c1)C=C(c1c(C(=O)N3CC4CCC(C3)N4C)cnn1CC(F)(F)F)Cn1c-2c(C2CCCCC2)c2ccc(C(=O)NS(=O)(=O)C(C)C)cc21 | 6.30 to 9.00 | 6.30 to 9.00 |  |  |
| COc1ccc2c(c1)C=C(c1c(C(=O)N3C4CCC3CC(C)(O)C4)cnn1CC(F)(F)F)Cn1c-2c(C2CCCCC2)c2ccc(C(=O)NS(=O)(=O)C(C)C)cc21 (centres unmarked) | 6.30 to 9.00 | 6.30 to 9.00 |  |  |
| COc1ccc2c(c1)C=C(c1c(C(=O)N3C4CCC3CN(C)C4)c(C(F)(F)F)nn1C)Cn1c-2c(C2CCCCC2)c2ccc(C(=O)NS(=O)(=O)C(C)C)cc21 | 6.30 to 9.00 | 6.30 to 9.00 |  |  |
| COc1ccc2c(c1)C=C(c1occc1C(=O)N1C3CCC1CN(C)C3)Cn1c-2c(C2CCCCC2)c2ccc(C(=O)NS(=O)(=O)C(C)C)cc21 | 6.30 to 9.00 | 6.30 to 9.00 |  |  |
| COc1ccc2c(c1)C=C(c1c(C(=O)N3CC4CCC(C3)N4C)c(C(F)(F)F)nn1C)Cn1c-2c(C2CCCCC2)c2ccc(C(=O)NS(=O)(=O)C(C)C)cc21 | 6.30 to 9.00 | 6.30 to 9.00 |  |  |
| CCn1ncc(C(=O)N2C3CCCC2COC3)c1C1=Cc2cc(OC)ccc2-c2c(C3CCCCC3)c3ccc(C(=O)NS(=O)(=O)C(C)C)cc3n2C1 | 6.30 to 9.00 | 6.30 to 9.00 |  |  |
| COc1ccc2c(c1)C=C(c1c(C(=O)N3C4CCC3COC4)cnn1CC(F)(F)F)Cn1c-2c(C2CCCCC2)c2ccc(C(=O)NS(=O)(=O)C(C)C)cc21 | 6.30 to 9.00 | 6.30 to 9.00 |  |  |
| CCn1nc(C)c(C(=O)N2CC3CCC(C2)N3C)c1C1=Cc2cc(OC)ccc2-c2c(C3CCCCC3)c3ccc(C(=O)NS(=O)(=O)C(C)C)cc3n2C1 | 6.30 to 9.00 | 6.30 to 9.00 |  |  |
